From patent US20100130945A1, “TREATMENT OF TISSUE VIA APPLICATION OF MAGNETIC FIELD” (priority 2006, published 2010)

System: isolated cardiac myocytes
Test: Ca2+ transients (indo-1 fluorescence ratio) in isolated cardiac myocytes in culture, with drug and 16 Hz alternating magnetic field
Type: cell-based, rat
Procedure: Cardiac myocytes were extracted in order to study intracellular free calcium ([Ca^2+]i) shifts as a result of exposure to alternating magnetic field. This was estimated from indo-1 fluorescence using the ratio method. […] The hearts were minced and then gently agitated in a solution of proteolytic enzymes, RDB. The RDB was diluted 1:100 in Ca^2+ and Mg^2+ free PBS at 25° C. for a few cycles of 10 minutes each, Dulbecco's modified Eagle's medium (DMEM) supplemented with inactivated 10% horse serum (Biological Industries, Kibbutz Beit Haemek, Israel), and 0.5% chick embryo extract was added to the supernatant suspensions containing dissociated cells. The mixture was centrifuged at 300 g for 5 minutes. The supernatant phase was discarded and the cells were resuspended in the same medium. The suspensions of the cells were diluted to 1.0×10^6 cells/ml and were placed in 35-mm plastic culture dishes on collagen/gelatin coated cover glasses. The culture was incubated in a humidified atmosphere of 5% CO2, 95% air at 37° C. All experiments were performed at day 4 in culture. In a second set of experiments the specificity of the myocyte ion channels (KATP) was tested by inducing exposure alternating magnetic field of 16 Hz, that were delivered for 10 minutes of base line (n=10). Following baseline recording, the channels were blocked by the addition to the dish 5 μM of Glibenclamide and alternating magnetic field was delivered for an additional 20 minutes. In the third setup of the experiment the amount of 5 μM of Glibenclamide was primarily added (n=10), to be followed by exposure to alternating magnetic field of 20 min. In the fourth phase of the experimental setup 3 μM of Nicorandil, a potassium channel opener (KCO) were added (n=10), following 10 minutes, alternating magnetic field was exposure was introduced for 20 minutes. In the fifth phase of the experiment alternating magnetic field was applied for 20 minutes followed by introduction of 3 μM of Nicorandil (n=5). Intracellular free calcium concentration [Ca^2+], was estimated from indo-1 fluorescence using the ratio method previously described before by Grynkiewicz et al (1985). Following incubation, the cells were rinsed twice with glucose enriched PBS and transferred to a chamber on the stage of a Zeiss inverted epifluorescent microscope. Indo-1-AM was excited at 355 nm and the emitted light was then split by a dichroic mirror to two photomultipliers, with input filters at 405 and 495 nm. The fluorescence ratio of 405/495 nm, which is proportional to [Ca2+] was fed into a computer program. The time integral of Ca^2+ Influx was determined as area under the curve via a program, which gives the integral during any specified time window. From this value the baseline offset, measured at the systolic and diastolic phase, were subtracted. Baseline data from calcium transients were normalized to 100 percent and all values were presented as percent change from baseline. Mean and SD were calculated. A P≦0.05 was considered statistically significant.

Row | Structure (SMILES) | change of amplitude of Ca2+ transients (widening) with glibenclamide (5 μM Glibenclamide added, before magnetic field, percent change from baseline, n=10, FIG. 8B) | change of amplitude of Ca2+ transients (narrowing) with glibenclamide following 20 minutes of alternating magnetic field (5 μM Glibenclamide then 20 min field of 16 Hz, 80 nT, n=10, FIG. 8C) | effect on calcium ions efflux from myocytes in cultures following exposure to 16 Hz magnetic field (low intensities of 16 Hz magnetic field, KATP channel blocker) | change of amplitude of Ca2+ transients (narrowing) with nicorandil (3 μM Nicorandil added, before magnetic field, percent change from baseline, FIG. 9B) | change of amplitude of Ca2+ transients (narrowing) with nicorandil following 20 minutes of alternating magnetic field (3 μM Nicorandil then 20 min field of 16 Hz, 80 nT, n=4, FIG. 9C) | combination of magnetic field exposure and KCO administration (nicorandil plus alternating magnetic field, 15.95 Hz, FIGS. 9A-C)
1 | COc1ccc(Cl)cc1C(=O)NCCc1ccc(S(=O)(=O)NC(=O)NC2CCCCC2)cc1 [glibenclamide] | +30%±9% | −24%±6% | counteracting effect |  |  | 
2 | O=C(NCCO[N+](=O)[O-])c1cccnc1 [nicorandil] |  |  |  | −58%±7% | −63%±3% | synergistic effect
